This test relates to P388 leukemia ip, CD2F1 mice, survival T/C. As to the kind of experiment: NCI In Vivo Anticancer Drug Screen. Data for tumor model P388 Leukemia (intraperitoneal) in CD2F1 (CDF1) mice. As to conditions: endpoint: median survival time, higher = longer survival. The method in brief:
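Mice carrying the transplanted tumor received test compound or vehicle. Survival was recorded in each group, and the value is the treated-group measurement divided by that of the vehicle-treated control group.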

The mark [1] stands for this setting: dose: 30.0 mg/kg/injection, schedule: Q01DX005 (ip), vehicle: saline with Tween-80.
[2] abbreviates: dose: 60.0 mg/kg/injection, schedule: Q01DX005 (ip), vehicle: saline with Tween-80.
[3] abbreviates: dose: 120.0 mg/kg/injection, schedule: Q01DX005 (ip), vehicle: saline with Tween-80.
Setting [4] is: dose: 240.0 mg/kg/injection, schedule: Q01DX005 (ip), vehicle: saline with Tween-80.
The mark [5] stands for this setting: dose: 50.0 mg/kg/injection, schedule: Q04DX003 (ip), vehicle: saline.
Where [6] appears, read: dose: 100.0 mg/kg/injection, schedule: Q04DX003 (ip), vehicle: saline.
Setting [7] is: dose: 60.0 mg/kg/injection, schedule: Q01DX005 (ip), vehicle: Klucel (hydroxypropylcellulose) (HPC).
Where [8] appears, read: dose: 25.0 mg/kg/injection, schedule: Q01DX009 (ip), vehicle: saline with Tween-80.
The mark [9] stands for this setting: dose: 50.0 mg/kg/injection, schedule: Q01DX009 (ip), vehicle: saline with Tween-80.
The mark [10] stands for this setting: dose: 100.0 mg/kg/injection, schedule: Q01DX009 (ip), vehicle: saline with Tween-80.
Where [11] appears, read: dose: 50.0 mg/kg/injection, schedule: Q01DX009 (ip), vehicle: saline.
The mark [12] stands for this setting: dose: 100.0 mg/kg/injection, schedule: Q01DX009 (ip), vehicle: saline.
Setting [13] is: dose: 120.0 mg/kg/injection, schedule: Q01DX005 (ip), vehicle: Klucel (hydroxypropylcellulose) (HPC).
Where [14] appears, read: dose: 240.0 mg/kg/injection, schedule: Q01DX005 (ip), vehicle: Klucel (hydroxypropylcellulose) (HPC).
[15] abbreviates: dose: 12.5 mg/kg/injection, schedule: Q01DX009 (ip), vehicle: saline.
The mark [16] stands for this setting: dose: 25.0 mg/kg/injection, schedule: Q01DX009 (ip), vehicle: saline.

Several values for one entry are separate records, joined by “and”; a condition that tells them apart may be missing. Equal values may be shown once. Toxic doses and inconclusive results are not listed.

For 23 compounds, T/C results are on record in PubChem BioAssay AID330 (DTP/NCI, 2004).

Regarding `CC(C)NC(=O)OCc1c(COC(=O)NC(C)C)c2cccn2c2c1cnn2-c1ccccc1`, the T/C was 87 % of control under setting [1]; 89 % of control under setting [2]; 89 % of control and 91 % of control under setting [3]; 96 % of control under setting [4].

In the case of `CC1CN1P(=O)(N1CC1C)N1CC1C` (stereo not drawn), the T/C was 104 % of control (dose: 3.13 mg/kg/injection, schedule: Q04DX003 (ip), vehicle: saline); 109 % of control (dose: 6.25 mg/kg/injection, schedule: Q04DX003 (ip), vehicle: saline); 109 % of control (dose: 12.5 mg/kg/injection, schedule: Q04DX003 (ip), vehicle: saline); 222 % of control under setting [5]; 86 % of control under setting [6].

Regarding `O=C1CSC(=Nc2ccccc2)N1c1ccc(-n2c(-c3ccc(N=Cc4ccc(Cl)cc4)cc3)nc3ccccc3c2=O)cc1`, the T/C under setting [7] is 92 % of control.

As to `CN(C)CCO[Si](C)(c1ccccc1)c1ccc(F)cc1` (stereo not drawn), the T/C is 100 % of control (dose: 12.5 mg/kg/injection, schedule: Q01DX009 (ip), vehicle: saline with Tween-80); 101 % of control under setting [8]; 98 % of control and 101 % of control under setting [9]; 99 % of control under setting [10]; 114 % of control (dose: 200.0 mg/kg/injection, schedule: Q01DX009 (ip), vehicle: saline with Tween-80).

Take `CC(c1ccccc1)n1ccnc1CC#N` (stereo not drawn): the T/C runs as follows: (dose: 15.0 mg/kg/injection, schedule: Q01DX005 (ip), vehicle: saline) 101 % of control; (dose: 30.0 mg/kg/injection, schedule: Q01DX005 (ip), vehicle: saline) 100 % of control; (dose: 60.0 mg/kg/injection, schedule: Q01DX005 (ip), vehicle: saline) 99 % of control and 98 % of control.

For `COc1cc(OC)c(OC)cc1/C=C/C1=C(C)C(=O)CC(c2cc(OC)c(OC)cc2OC)C1C` (stereo not drawn), the T/C was 86 % of control (dose: 100.0 mg/kg/injection, schedule: Q01DX001 (ip), vehicle: Klucel (hydroxypropylcellulose) (HPC)) and 86 % of control (dose: 200.0 mg/kg/injection, schedule: Q01DX001 (ip), vehicle: Klucel (hydroxypropylcellulose) (HPC)).

As to `CC1=CN2CCC(=O)N=C2C=C1`, the T/C is 93 % of control under setting [11]; 90 % of control under setting [12]; 94 % of control (dose: 200.0 mg/kg/injection, schedule: Q01DX009 (ip), vehicle: saline).

For the compound `Brc1cccc2c(SCCCCCCSc3c4ccccc4nc4c(Br)cccc34)c3ccccc3nc12`, the T/C reads like this: under setting [7], 93 % of control; under setting [13], 92 % of control; under setting [14], 93 % of control.

With `CNC(=O)CCCCCNC(C)=O`, the T/C by setting is: (dose: 50.0 mg/kg/injection, schedule: Q01DX005 (ip), vehicle: Klucel (hydroxypropylcellulose) (HPC)) 98 % of control; (dose: 100.0 mg/kg/injection, schedule: Q01DX005 (ip), vehicle: Klucel (hydroxypropylcellulose) (HPC)) 95 % of control; (dose: 200.0 mg/kg/injection, schedule: Q01DX005 (ip), vehicle: Klucel (hydroxypropylcellulose) (HPC)) 90 % of control; (dose: 400.0 mg/kg/injection, schedule: Q01DX005 (ip), vehicle: Klucel (hydroxypropylcellulose) (HPC)) 97 % of control.

On to `Nc1nc(N)c2c(Cl)c(CNc3ccc(C(=O)NC(CC(=O)O)C(=O)O)cc3)ccc2n1` (stereo not drawn), for which the T/C is, setting by setting: (dose: 0.39 mg/kg/injection, schedule: Q01DX009 (ip), vehicle: saline with Tween-80) 210 % of control; (dose: 0.78 mg/kg/injection, schedule: Q01DX009 (ip), vehicle: saline with Tween-80) 201 % of control; (dose: 1.56 mg/kg/injection, schedule: Q01DX009 (ip), vehicle: saline with Tween-80) 90 % of control; (dose: 780.0 micrograms/kg/injection, schedule: Q01DX009 (ip), vehicle: saline with Tween-80) 194 % of control; (dose: 1560.0 micrograms/kg/injection, schedule: Q01DX009 (ip), vehicle: saline with Tween-80) 94 % of control.

Consider `COC(CCl)(CBr)OC`, for which the T/C was 95 % of control under setting [8], 97 % of control under setting [9] and 105 % of control under setting [10].

As to `Cc1nc2c([N+](=O)[O-])c(N3CCCCC3)c([N+](=O)[O-])cc2[nH]1`, the T/C reads like this: (dose: 100.0 mg/kg/injection, schedule: Q04DX002 (ip), vehicle: saline with Tween-80) 101 % of control; (dose: 200.0 mg/kg/injection, schedule: Q04DX002 (ip), vehicle: saline with Tween-80) 104 % of control.

`NC1CCC(O)CC1C(=O)O` (stereo not drawn): the T/C runs as follows: (dose: 50.0 mg/kg/injection, schedule: Q01DX005 (ip), vehicle: saline with Tween-80) 99 % of control; (dose: 100.0 mg/kg/injection, schedule: Q01DX005 (ip), vehicle: saline with Tween-80) 103 % of control; (dose: 200.0 mg/kg/injection, schedule: Q01DX005 (ip), vehicle: saline with Tween-80) 86 % of control.

Regarding `Cc1ccc(C(=O)NN2C(N)=NC(N)=NC2(C)C)cc1`, the T/C by setting is: under setting [5], 100 % of control; under setting [6], 105 % of control.

For the compound `O=c1oc2ccc(Cl)cc2c(=O)n1-c1cc(Cl)ccc1[N+](=O)[O-]`, the T/C (dose: 50.0 mg/kg/injection, schedule: Q01DX005 (ip), vehicle: saline) is 100 % of control; the T/C (dose: 100.0 mg/kg/injection, schedule: Q01DX005 (ip), vehicle: saline) is 99 % of control; the T/C (dose: 200.0 mg/kg/injection, schedule: Q01DX005 (ip), vehicle: saline) is 104 % of control.

On to `CCCCCC(CN(C)C)C(=O)/C=C/c1ccc(Cl)c(Cl)c1` (stereo not drawn), for which the T/C is 100 % of control (dose: 1.56 mg/kg/injection, schedule: Q01DX009 (ip), vehicle: saline); 100 % of control (dose: 3.12 mg/kg/injection, schedule: Q01DX009 (ip), vehicle: saline); 102 % of control (dose: 6.25 mg/kg/injection, schedule: Q01DX009 (ip), vehicle: saline); 109 % of control under setting [15]; 92 % of control under setting [16].

On to `O=C1CN(c2ccccc2)C(=O)C1C(=O)Nc1ccc(Cl)c(Cl)c1` (stereo not drawn), for which the T/C runs as follows: under setting [1], 117 % of control; under setting [2], 121 % of control and 123 % of control; under setting [4], 90 % of control.

For the compound `CCOc1ccc(C(CC)c2cc3c(cc2OC)OCO3)cc1` (stereo not drawn), the T/C was 100 % of control (dose: 60.0 mg/kg/injection, schedule: Q01DX005 (ip), vehicle: saline + Tween-80 + alcohol); 100 % of control (dose: 120.0 mg/kg/injection, schedule: Q01DX005 (ip), vehicle: saline + Tween-80 + alcohol); 100 % of control (dose: 240.0 mg/kg/injection, schedule: Q01DX005 (ip), vehicle: saline + Tween-80 + alcohol).

Consider `O=C(O)C(OC(=O)C(F)(F)F)C(F)(F)C(F)(F)C(F)(F)F` (stereo not drawn), for which the T/C is, setting by setting: under setting [2], 95 % of control; under setting [3], 89 % of control; under setting [4], 99 % of control.

On to `Nc1nc(N)nc(N/C=C/C(=O)O)n1`, for which the T/C runs as follows: (dose: 50.0 mg/kg/injection, schedule: Q01DX005 (ip), vehicle: water) 99 % of control; (dose: 100.0 mg/kg/injection, schedule: Q01DX005 (ip), vehicle: water) 105 % of control; (dose: 200.0 mg/kg/injection, schedule: Q01DX005 (ip), vehicle: water) 106 % of control.

As for `OCC1CCC(O)C=C2CCCC21` (stereo not drawn), the T/C was 94 % of control under setting [7], 103 % of control under setting [13] and 105 % of control under setting [14].

Consider `CCOC(=O)c1noc(Oc2ccc(Cl)cc2Cl)n1`, for which the T/C by setting is: under setting [2], 93 % of control; under setting [3], 97 % of control; under setting [4], 90 % of control.

Take `O=C(O)CN(CCO)CCN(CC(=O)O)CC(=O)O`: the T/C reads like this: under setting [15], 100 % of control; under setting [8], 100 % of control; under setting [16], 104 % of control; under setting [9], 95 % of control; under setting [11], 95 % of control; under setting [10], 100 % of control. The T/C under setting [12] is 98 % of control.
